Reference: ChEMBL document CHEMBL1201862, “PubChem BioAssay data set” (2004)
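Step 1: Grow cells in 96-well plates. Step 2: Expose to compound for 48 hours at 5 concentrations. Step 3: Interpolate endpoints linearly; if unreached, use highest concentration. Here, GI50 denotes the concentration required for 50% inhibition of growth.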 The source made the active and inactive calls. No stated cut-off is given here; in the data, active = GI50 up to about 1.1 µM and inactive = higher.

Assays:
Assay in all cases: NCI tumour cell line growth inhibition, 48 h
786-0 = test system: 786-0
A498 = test system: A498
A549 = test system: A549
ACHN = test system: ACHN
CAKI-1 = test system: CAKI-1
CCRF-CEM = test system: CCRF-CEM
COLO 205 = test system: COLO 205
DLD-1 = test system: DLD-1
DMS-114 = test system: DMS-114
DMS-273 = test system: DMS-273
EKVX = test system: EKVX
HCC 2998 = test system: HCC 2998
HCT-15 = test system: HCT-15
HL-60 = test system: HL-60
HOP-62 = test system: HOP-62
HT-29 = test system: HT-29
IGROV-1 = test system: IGROV-1
K562 = test system: K562
KM-20L2 = test system: KM-20L2
KM12 = test system: KM12
LOX IMVI = test system: LOX IMVI
LXFL 529 = test system: LXFL 529
M14 = test system: M14
M19-MEL = test system: M19-MEL
MOLT-4 = test system: MOLT-4
Malme-3M = test system: Malme-3M
NCI-H226 = test system: NCI-H226
NCI-H23 = test system: NCI-H23
NCI-H460 = test system: NCI-H460
NCI-H522 = test system: NCI-H522
OVCAR-3 = test system: OVCAR-3
OVCAR-4 = test system: OVCAR-4
OVCAR-5 = test system: OVCAR-5
OVCAR-8 = test system: OVCAR-8
RPMI-8226 = test system: RPMI-8226
RXF 393 = test system: RXF 393
RXF 631 = test system: RXF 631
SF-268 = test system: SF-268
SF-295 = test system: SF-295
SF-539 = test system: SF-539
SK-MEL-28 = test system: SK-MEL-28
SK-MEL-2 = test system: SK-MEL-2
SK-MEL-5 = test system: SK-MEL-5
SK-OV-3 = test system: SK-OV-3
SN12C = test system: SN12C
SNB-19 = test system: SNB-19
SNB-75 = test system: SNB-75
SW-620 = test system: SW-620
TK-10 = test system: TK-10
UACC-257 = test system: UACC-257
UACC-62 = test system: UACC-62
UO-31 = test system: UO-31
XF498 = test system: XF498

Measured: GI50

Cc1cccc(NC(=O)Cc2nc3ccccc3s2)c1C
inactive: 786-0 > 100 µM | A498 83.8 µM | A549 > 100 µM | ACHN > 100 µM | CAKI-1 > 100 µM | CCRF-CEM > 100 µM | COLO 205 > 100 µM | DLD-1 > 100 µM | DMS-114 > 100 µM | DMS-273 > 100 µM | EKVX > 100 µM | HCC 2998 > 100 µM | HL-60 > 100 µM | HOP-62 > 100 µM | HT-29 > 100 µM | IGROV-1 > 100 µM | K562 > 100 µM | KM-20L2 > 100 µM | KM12 > 100 µM | LOX IMVI > 100 µM | LXFL 529 > 100 µM | M14 > 100 µM | M19-MEL > 100 µM | MOLT-4 > 100 µM | Malme-3M > 100 µM | NCI-H226 > 100 µM | NCI-H23 > 100 µM | NCI-H460 > 100 µM | NCI-H522 > 100 µM | OVCAR-3 > 100 µM | OVCAR-4 > 100 µM | OVCAR-5 > 100 µM | OVCAR-8 > 100 µM | RPMI-8226 > 100 µM | RXF 393 > 100 µM | RXF 631 > 100 µM | SF-268 > 100 µM | SF-295 > 100 µM | SF-539 > 100 µM | SK-MEL-28 > 100 µM | SK-MEL-2 > 100 µM | SK-MEL-5 > 100 µM | SK-OV-3 > 100 µM | SN12C > 100 µM | SNB-19 > 100 µM | SNB-75 > 100 µM | SW-620 > 100 µM | TK-10 > 100 µM | UACC-257 > 100 µM | UACC-62 > 100 µM | UO-31 > 100 µM | XF498 > 100 µM
> 100 µM: HCT-15
